In experiment [1] the target is T1, αS fibrils, Site 2 ([^3H]Tg-190b) (Homo sapiens, UniProt P37840). Briefly: Competition binding assay with Site 2 radioligand [^3H]Tg-190b on αS fibrils. The note with it: αS fibrils 100 nM, [^3H]Tg-190b 6 nM, 1 h 37 °C; 95% confidence intervals in parentheses in Table 1 (n = 3). On the procedure:
(§1) Fig. S10 Screening of SAR Library Derived from Compound 6. Site 2 radioligand competition binding assays with [3H]Tg-190b. ANOVA was performed with Dunnett’s multiple comparisons test, where […]
(§2) *P<0.0332, **P<0.0021, ***P<0.0002 and ****P<0.0001.
(§3) Competition binding assay. αS fibrils (100 nM for Site 2 and 50 nM for Site 9) were mixed with Site 2 ligand [3H]Tg-190b (6 nM) or Site 9 ligand [3H]BF2846 (3 nM) and varying concentrations of unlabeled compounds 2, 6, 24, 28, 31, 39, 40, or 52. Compounds were diluted in 50 mM Tris-HCl buffer (pH 7.4) and mixed with fibrils and radioligand in a total volume of 150 µL. Total binding was measured in the absence of competitor and nonspecific binding was determined in reactions containing unlabeled Tg-190b (1 µM) or BF2846 (0.5 µM). In a duplicate set of binding […]
(§4) binding to the filter paper. Reactions were incubated at 37 °C for 1 h. After incubation, bound […]
(§5) Filters containing the bound ligand were mixed with 3 mL of scintillation cocktail (MicroScint-20, PerkinElmer) and counted after 12 h of incubation on a MicroBeta System (PerkinElmer). All data points were acquired in triplicate.
(§6) (1 picture or pasted object on this page, not shown here)
(§7) The measured cpm values were converted to % specific binding as described by the equation […]
(§8) % specific binding = !"#$"#% "# ’() *+),)#-) ./ -.0*)’"’.+1#.#,*)-"/"- !"#$"#% ∗ 100 ’.’23 !"#$"#%1#.#,*)-"/"- !"#$"#%
(§9) IC50 values were calculated by fitting the data to Equation S1 below by non-linear regression, using GraphPad Prism software:
(§10) Y = Bottom + (Top-Bottom) / (1+ 10(813.%9:;<)) (S1) where logIC50 is the log of the concentration of competitor that results in binding half-way between Bottom and Top; Top and Bottom are plateaus in the units of Y axis; they are binding observed in the absence of competitor and in the presence of a maximal concentration of competitor, respectively. Binding curves for compounds 2 and 6 are shown in Fig. 2 in the main text and for compounds 6, 24, 28, 31, 39, 40, and 52 in Figs. S11 and S12.

In experiment [2] the target is T1, αS fibrils, Site 2 ([^3H]Tg-190b). Briefly: Single-concentration radioligand competition screen (100 nM compound) against [^3H]Tg-190b. In kind it is binding. The note with it: 100 nM αS fibrils, [^3H]Tg-190b 6 nM. The method, then: Compounds 1–17 were purchased from vendors that were listed on the ZINC15 compound library. […] Total binding was measured in the absence of competitor and nonspecific binding was determined in reactions containing unlabeled Tg-190b (1 μM) or BF2846 (0.5 μM). […] Filters containing the bound ligand were mixed with 3 mL of scintillation cocktail (MicroScint-20, PerkinElmer, Inc.) and counted after 12 h of incubation on a MicroBeta System (PerkinElmer, Inc.). All data points were measured in triplicate. Screening of compounds 18–56 for the SAR study was performed in a similar fashion.
In Vitro Radioligand Binding Assays
Screening compound library. Compounds 1-17 (Fig. S8) were purchased from vendors that were listed on the ZINC15 compound library. 3 Compounds were screened for αS binding and after identifying the lead compound, 6, the core structure of compound 6 and its pyrazole or oxadiazole derivatives were used for similarity search on the Mcule, Inc. website.12 The similarity threshold was set to higher than 0.8, then compound 18-56 (Fig. S9) were chosen and ordered from the four companies mentioned above.
In order to screen the purchased compounds for αS binding, 100 nM solutions of each compound (1-56) were incubated for 1 hour at 37 °C with 100 nM αS fibrils and [3H]Tg-190b (6 nM) or [3H]BF2846 (3 nM) in 50 mM Tris-HCl, pH 7.4. Total binding was measured in the absence of competitor and nonspecific binding was determined in reactions containing unlabeled Tg-190b (1 µM) or BF2846 (0.5 µM). After incubation, bound and free radioligand were […]
scintillation cocktail (MicroScint-20, PerkinElmer; Waltham, MA, USA) and counted after 12 h of incubation on a MicroBeta System (PerkinElmer). All data points were acquired in triplicate.
Percentage of bound radioligand relative to total binding was plotted and data was analyzed by One-Way ANOVA, comparing the mean of each data set to the mean of total binding. […]
are shown in Fig. 2 in the main text, and Fig. S8 and S10.
Background: Loss of bound radioactivity is the signal in a displacement assay; it reports binding, not function.

The target of experiment [3] is αS fibrils, Site 9 ([^3H]BF2846) (Homo sapiens, UniProt P37840). Briefly: Competition binding assay with Site 9 radioligand [^3H]BF2846 on αS fibrils. The note with it: αS fibrils 50 nM, [^3H]BF2846 3 nM, 1 h 37 °C; 95% confidence intervals in parentheses (n = 3). The method, then:
as §1, §2, §3, §4, §5, §6, §7, §8, §9, §10

The target of another experiment is αS aggregation (Homo sapiens, UniProt P37840). Briefly: αS aggregation fluorescence polarization experiment. The experiment is classed as biochemical. To be noted: 10 and 100 μM compound, 100 μM αS monomer with 1% labeled αS. The method, then:
(§11) Fluorescence Polarization and Photo -Crosslinking Assays
(§12) Aggregation and disaggregation fluorescence polarization experiments. Wild-type and αS with a fluorescein maleimide attached via Cys114 mutation were produced as previously described.10 Aggregations were performed at a total monomer concentration of 100 μM with 1% labeled αS in 20 mM Tris, 100 NaCl pH 7.4 in the presence of 10 and 100 μM compound 6 and with equivalent volume of DMSO as a control. At each timepoint, an aliquot of the fibrilization reaction was removed and diluted 10-fold in buffer. Fluorescence polarization (FP) was measured in a Greiner black 96 half-area well microplate (Greiner Bio-One North America Inc.; Monroe, NC, USA) at a total volume of 50 μL on a Tecan F200 plate reader (San Jose, CA, USA).
Aggregations were performed in triplicate. […]
Fig. S4 Impact of Compound 6 on αS Aggregation. Aggregation of αS in the presence of 1% labeled monomer along with (light-green) 10 and (dark-green) 100 μM compound 6 monitored by (a) fluorescence polarization (FP) and (b) Congo Red absorbance. Aggregation in the presence of compound was compared to aggregation in the presence of volume matched addition of DMSO for (grey) 10 and (black) 100 μM […]
10 and (black) 100 μM compound administration was used as a negative control. […]
(Fluorescence polarisation rises when a labelled molecule tumbles more slowly, as on binding a larger partner.)

Experiment [4] has as its target T2, αS fibrils (Homo sapiens, UniProt P37840). Briefly: αS fibril disaggregation (stability) fluorescence polarization experiment. In kind it is biochemical. To be noted: 10 μM labeled fibrils; compound 6 at 10 and 100 μM, EGCG and NDGA at 100 μM. The method, then:
as §11, §12
Aggregations were performed in triplicate.
Disaggregation experiments were performed on labeled fibril samples prepared as described above in the absence of compound. A final concentration of 10 μM fibrils was added to each well for each disaggregation experiment and compound 6, nordihydroguaiaretic acid (NDGA), epigallocatechin gallate (EGCG) or DMSO (1%) was added just prior to measurement to the final concentrations detailed in Fig. S3 and total volumes of 50 μL. Samples were shaken at 149 rpm at room temperature with FP measurements taken every 150 s. EGCG and NDGA […]
Fig. S5 Impact of Compound 6 on αS Fibril Stability. Assessment of potential remodeling of 1% labeled αS fibrils by (light-green) 10 and (dark-green) 100 μM compound 6 compared to (red) 100 μM EGCG and (blue) 100 μM NDGA as a positive control. DMSO administration volume-matched to that used for (grey) 10 and (black) 100 μM compound administration was used as a negative control. […]

The target of experiment [5] is T2, αS fibrils.
Procedure: αS (50 nM) or Aβ42 (100 nM) fibrils were incubated for 1 h at 37 °C with increasing concentrations of [^125I]61 in 50 mM Tris–HCl, pH 7.4, in a total volume of 150 μL. Nonspecific binding was determined in a duplicate set of binding reactions containing 2 μM non-radioactive 61. After incubation, bound and free radioligand were separated by vacuum filtration through Whatman GF/C filters in a 24-sample harvester system, followed by washing with buffer containing 10 mM Tris–HCl (pH 7.4) and 150 mM NaCl. Filters containing the bound ligand were counted immediately on 2470 WIZARD Automatic Gamma Counter. All data points were collected in triplicate. The equilibrium dissociation constant (Kd) and the maximal number of binding sites (Bmax) were determined by fitting the data to the equation Y = Bmax × X/(Kd + X), using GraphPad Prism software.
Saturation binding assay. αS (50 nM) or Ab42 (100 nM) fibrils were incubated for 1 h at 37 °C
with increasing concentrations of [125I]61 in 50 mM Tris-HCl, pH 7.4, in a total volume of 150
µL. Nonspecific binding was determined in a duplicate set of binding reactions containing 2 µM
unlabeled 61. To measure the amount of radioligand binding to the filter paper, fibrils were
replaced with equal volume of buffer in a duplicate set of binding reactions. After incubation,
bound and free radioligand were separated by vacuum filtration through Whatman GF/C filters
(Brandel) in a 24-sample harvester system (Brandel), followed by washing with buffer containing
10 mM Tris-HCl (pH 7.4) and 150 mM NaCl. Filters containing the bound ligand were counted
immediately on 2470 WIZARD Automatic Gamma Counter (Perkin Elmer). All data points were
acquired in triplicate. The equilibrium dissociation constant (Kd) and the maximal number of
binding sites (Bmax) were determined by globally fitting the total binding and nonspecific binding
Y = Bmax*[X/(Kd+X)] + NS*X (S2)
where X is the concentration of ligand ([125I]61) and NS is nonspecific binding, using GraphPad
Prism software (San Diego, CA, USA).

Entries after “also recorded” stand apart in the source; their conditions may differ.

On to `Cc1ccc(N2CCN(c3cnn(-c4ccccc4)c(=O)c3Cl)CC2)cc1C` [Compound 2], for which the IC50 (commonly the point on the concentration scale where inhibition reaches its midpoint) in experiment [1] is 490 nM. For `Cc1ccc(OCC(=O)Nc2cc(-c3ccc(F)cc3)no2)cc1C` [Compound 6], in experiment [2], the “Binding in Site 2 radioligand competition screen (in words)” value (“Binding” below) was “high affinity”. Further, the values for the IC50 in experiment [3] and in experiment [1] were 109 nM and 9.49 nM, respectively. The “Effect on rate of αS aggregation” value at αS aggregation was “No significant effect; also recorded: did not show any significant effect”. Further, the “Effect on stability of αS fibrils” value on αS fibrils [4] was “no apparent effect; also recorded: did not show any significant effect”. Regarding `COc1ccc(OCC(=O)Nc2cc(-c3ccc(C)cc3)no2)cc1` [Compound 19], the “Binding” value in experiment [2] is given as “moderate to strong binding”. For `CC(Oc1ccc(F)cc1)C(=O)Nc1cc(-c2ccccc2)no1` (stereo not drawn) [Compound 23], the “Binding” value in experiment [2] is “bind poorly”. Take `COc1ccc(OCC(=O)Nc2cc(-c3ccccc3)no2)cc1` [Compound 24]: in experiment [2], the “Binding” value is reported as “moderate to strong binding”. In addition, the IC50 came out at 557 nM in experiment [3] and 95.1 nM in experiment [1]. As for `O=C(COc1ccc(F)cc1)Nc1cc(-c2ccccc2)no1` [Compound 25], the “Binding” value in experiment [2] is “weak binders”. The same measure, in the same setting: next, `COc1ccccc1OCC(=O)Nc1cc(-c2ccccc2)no1` [Compound 27]: “hinder binding”. Regarding `Cc1ccc(OCC(=O)Nc2cc(-c3ccc(Br)cc3)no2)cc1C` [Compound 28], the “Binding” value in experiment [2] is “moderate to strong binding”. In addition, the IC50 in experiment [3] is 12.6 nM. On to `COc1ccc(OCC(=O)Nc2cc(-c3ccc(Br)cc3)no2)cc1` [Compound 31], for which the “Binding” value in experiment [2] is given as “moderate to strong binding”. Further, the IC50 in experiment [3] worked out at 37 nM; in experiment [1] it was 68.7 nM.

Consider `COc1ccc(OCC(=O)Nc2cc(-c3ccc(F)cc3)no2)cc1` [Compound 34], for which, in experiment [2], the “Binding” value is listed as “moderate to strong binding”. With `COc1ccc(OCC(=O)Nc2cc(-c3ccc(F)c(F)c3)no2)cc1` [Compound 39], the “Binding” value in experiment [2] is recorded as “moderate to strong binding”. Further, the IC50 is more than 1000 nM in experiment [3] and 95.7 nM in experiment [1]. With `Cc1ccc(OCC(=O)Nc2cc(-c3ccc(F)c(F)c3)no2)cc1C` [Compound 40], the “Binding” value in experiment [2] is “moderate to strong binding”. The IC50 is more than 1000 nM in experiment [3] and 19.6 nM in experiment [1]. For `COc1ccc(OCC(=O)Nc2noc(-c3ccccc3)n2)cc1` [Compound 48], the “Binding” value in experiment [2] is recorded as “bound more poorly than the corresponding isoxazole compound”.

`O=C(COc1ccc(F)cc1)Nc1noc(-c2ccccc2)n1` [Compound 50]: the “Binding” value in experiment [2] is on record as “bound more poorly than the corresponding isoxazole compound; also recorded: weak binders”. Turning to `O=C(COc1ccccc1)Nc1noc(-c2ccccc2)n1` [Compound 51], in experiment [2], the “Binding” value is reported as “bound more poorly than the corresponding isoxazole compound”. On to `Cc1ccc(OCC(=O)Nc2cc(-c3ccccc3)no2)cc1C` [Compound 52], for which the “Binding” value in experiment [2] is recorded as “moderate to strong binding”. Further, the IC50 in experiment [3] is more than 1000 nM; in experiment [1] it was 30.7 nM. For the compound `O=C(COc1ccc(F)cc1)Nc1cc(-c2ccccc2)n[nH]1` [Compound 55], the “Binding” value in experiment [2] was “moderate affinity”. Take `Cc1ccc(OCC(=O)Nc2cc(-c3ccc(I)cc3)no2)cc1C` [Compound 61]: the Kd (in general, the concentration at which binding is half-saturated) at αS fibrils [5] was 1 nM. Besides, the “Selectivity for αS fibrils over amyloid β (Aβ42 fibrils)” value on αS fibrils [5] (from saturation binding Kd values) is on record as approximately 5 fold. As to `O=C(O[C@@H]1Cc2c(O)cc(O)cc2O[C@@H]1c1cc(O)c(O)c(O)c1)c1cc(O)c(O)c(O)c1` [EGCG, epigallocatechin gallate, reference compound], the “Effect on stability of αS fibrils” value at αS fibrils [4] is reported as “disrupted fibril stability”. Still for that read-out and setting: the result for `CC(Cc1ccc(O)c(O)c1)C(C)Cc1ccc(O)c(O)c1` (stereo not drawn) [NDGA, nordihydroguaiaretic acid, reference compound] reads “disrupted fibril stability”.
